How the values were obtained:
murine CCR2 = target: T1, murine CCR2 (Mus musculus, UniProt P51683); assay: Functional β-arrestin recruiting test with murine MCP-1 (B-2b); assay type: cell-based; conditions: U2OS β-arrestin cell line transfected with murine CCR2; agonist murine MCP-1; in some cases means of several determinations
T1 construct: host or cells: U2OS β-arrestin cell line
Method: The antagonistic action of test substances on CCR2 was determined in a β-arrestin test. The PathHunter β-arrestin GPCR test system (DiscoveRx Corporation, Ltd.) is a cell-based functional method for detecting binding of β-arrestin to an activated receptor. The molecular basis is a […] complementation measured by the enzymatic conversion of a chemiluminescent substrate. The test cell used was a U2OS β-arrestin cell line transfected with murine CCR2 (93-0543C3, DiscoveRx Corporation, Ltd.).
(§1) The test substances were dissolved in dimethyl sulphoxide (DMSO) at a concentration of 10 mM and serially diluted with DMSO in steps of 1:3.16 for a 10-point dose/activity analysis. According to the desired test concentrations, the substances were pre-diluted in Tyrode with 2 mM CaCl2 and 0.05% BSA.
The cells, cultivated in MEM Eagle (supplemented with 10% FCS, 50 U/ml of penicillin, 50 μg/ml of streptomycin, 250 μg/ml of hygromycin and 500 μg/ml of geniticin), were sown at 2000 cells/25 μl in 384 well, μCLEAR/black cell culture plates from Greiner (#781092) and incubated at 37° C. for 24 h. The sowing medium consisted of Opti-MEM (supplemented with 1% FCS, 50 U/ml of penicillin and 50 μg/ml of streptomycin). The cells were pre-incubated for 10 min with 10 μl of the test substances diluted in buffer, and 10 μl of agonist solution [human MCP-1 (PeproTech, #300-04) in Tyrode with 0.05% BSA) were then added. The human MCP-1 was employed at the concentration which corresponds to the EC50 which had been determined in a preliminary test (usually about 3 nM). After 90 min of incubation at 37° C., the solution was removed, and recruitment of β-arrestin to CCR2 was detected with the aid of the PathHunter detection reagent (93-001, DiscoveRx Corporation, Ltd.) according to the instructions of the manufacturer. Luminescence was measured after an incubation time of 60 min using a proprietary luminescence imaging measuring instrument. The molar concentration of the test substance which caused 50% inhibition of the MCP-1 effect (IC50) was determined using a 4-parameter logistic function (Hill function).
The test was carried out in a manner identical to that described above under B-2a, but using murine MCP-1 (PeproTech, #250-10) as agonist.

human CCR2 = target: T2, human CCR2 (Homo sapiens, UniProt P41597); assay: Functional Ca2+ release test (B-1); assay type: cell-based; conditions: Chem-1 cell line transfected with human CCR2; 50% inhibition of the MCP-1 effect, MCP-1 at EC50 (about 5 nM); in some cases means of several determinations
T2 construct: host or cells: Chem-1 cell line
T2 sequence (P41597 1-360 isoform P41597-2): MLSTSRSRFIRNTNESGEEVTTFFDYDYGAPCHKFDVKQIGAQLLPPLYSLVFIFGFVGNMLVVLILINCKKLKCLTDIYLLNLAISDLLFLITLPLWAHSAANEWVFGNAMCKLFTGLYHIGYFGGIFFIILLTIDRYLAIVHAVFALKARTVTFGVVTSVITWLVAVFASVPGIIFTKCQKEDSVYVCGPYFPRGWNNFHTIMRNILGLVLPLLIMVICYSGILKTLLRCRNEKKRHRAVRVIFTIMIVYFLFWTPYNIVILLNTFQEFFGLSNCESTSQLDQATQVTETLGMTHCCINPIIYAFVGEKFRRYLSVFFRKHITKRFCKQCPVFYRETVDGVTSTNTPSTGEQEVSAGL
Method: The antagonistic action of test substances on CCR2 was determined in a functional Ca^2+ release test. Binding of CCL2/MCP-1 to CCR2 leads to a change in the conformation of the receptor resulting in Gi/Gq protein activation and intracellular signal cascade. This involves, inter alia, an intracellular Ca^2+ release. The test cell used was a Chem-1 cell line transfected with human CCR2 (ChemiSCREEN™ CCR2B Calcium-Optimized FLIPR Cell Line, Merck Millipore).
as §1
The cells, cultivated in DMEM high glucose [supplemented with 10% FCS, 1 mM pyruvate, 15 mM HEPES, 500 μg/ml geniticin and non-essential amino acids (NEAA)], were sown at 5000 cells/25 μl in 384 well, μCLEAR/black cell culture plates from Greiner (#781092) and incubated at 37° C. for 24 h. The sowing medium consisted of DMEM high glucose [supplemented with 5% FCS, 1 mM pyruvate, 15 mM HEPES, 50 U/ml penicillin, 50 μg/ml streptomycin and non-essential amino acids (NEAA)]. The medium was then removed and the cells were charged for 60 min at 37° C. with Fluo-4 dye [25 μl Tyrode with 3 μM Fluo-4 AM (1 mM DMSO stock solution), 0.4 mg/ml Brilliant Black, 2.5 mM probenicid, 0.03% Pluronic F-127]. The cells were pre-incubated for 10 min with 10 μl of the test substances diluted in buffer, and 20 μl of agonist solution (MCP-1 in Tyrode with 0.05% BSA) were then added. MCP-1 was employed at the concentration which corresponds to the EC50 which had been determined in a preliminary test (usually about 5 nM). Ca^2+ release was monitored over a period of 120 s in 1 s increments in a proprietary fluorescence imaging reader. The molar concentration of the test substance which caused 50% inhibition of the MCP-1 effect (IC50) was determined using a 4-parameter logistic function (Hill function).

T1 sequence (P51683 whole entry): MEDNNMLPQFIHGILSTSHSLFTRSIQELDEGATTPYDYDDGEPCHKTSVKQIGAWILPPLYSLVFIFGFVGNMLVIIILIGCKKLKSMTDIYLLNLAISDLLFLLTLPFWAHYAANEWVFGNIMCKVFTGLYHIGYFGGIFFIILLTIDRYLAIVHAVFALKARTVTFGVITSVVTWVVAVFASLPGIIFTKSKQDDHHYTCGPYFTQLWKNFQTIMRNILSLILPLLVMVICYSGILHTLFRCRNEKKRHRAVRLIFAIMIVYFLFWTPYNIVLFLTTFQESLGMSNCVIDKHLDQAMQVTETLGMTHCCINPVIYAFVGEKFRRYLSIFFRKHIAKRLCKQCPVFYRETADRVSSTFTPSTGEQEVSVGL

Row | Structure (SMILES) | IC50 (murine CCR2) [nM] | IC50 (human CCR2) [nM]
1 | CSc1ccnc(-c2nc(C(F)(F)F)c(Oc3ccc(Cl)c(C(F)(F)F)c3)c(=O)[nH]2)c1 [Example 191, 5-[4-chloro-3-(trifluoromethyl)phenoxy)-2-[4-(methylsulphanyl)pyridin-2-yl]-6-(trifluoromethyl)pyrimidin-4(3H)-one] | 693 | 5
2 | Cn1nc(-c2nc(C(F)(F)F)c(Oc3ccc(Cl)c(Cl)c3)c(=O)[nH]2)c2cccnc21 [Example 205] | 2490 | 26
3 | COc1cccc(-c2nc(C(F)(F)F)c(Oc3ccc(Cl)c(Cl)c3)c(=O)[nH]2)n1 [Example 144, 5-(3,4-dichlorophenoxy)-2-(6-methoxypyridin-2-yl)-6-(trifluoromethyl)pyrimidin-4(3H)-one] | 759 | 17
4 | CC(C)(C)Oc1ccnc(-c2nc(C(F)(F)F)c(Oc3ccc(Cl)c(Cl)c3)c(=O)[nH]2)c1 [Example 159, 2-(4-tert-butoxypyridin-2-yl)-5-(3,4-dichlorophenoxy)-6-(trifluoromethyl)pyrimidin-4(3H)-one] | 2470 | 62
5 | O=c1[nH]c(-n2cc(C(F)(F)F)cn2)nc(C(F)(F)F)c1Oc1ccc(Cl)c(Cl)c1 [Example 253] | 4230 | 240
6 | COc1ccc2c(-c3nc(C(F)(F)F)c(Oc4ccc(Cl)c(Cl)c4)c(=O)[nH]3)noc2c1 [Example 208] | 9580 | 77
7 | O=c1[nH]c(-c2ccnnc2)nc(C(F)(F)F)c1Oc1ccc(Cl)c(C(F)(F)F)c1 [Example 129, 5-[4-chloro-3-(trifluoromethyl)phenoxy]-2-(pyridazin-4-yl)-6-(trifluoromethyl)pyrimidin-4(3H)-one] | 2710 | 222
8 | CC(C)Oc1ccnc(-c2nc(C(F)(F)F)c(Oc3ccc(Cl)c(C(F)(F)F)c3)c(=O)[nH]2)c1 [Example 150, 5-[4-chloro-3-(trifluoromethyl)phenoxy]-2-(4-isopropoxypyridin-2-yl)-6-(trifluoromethyl)pyrimidin-4(3H)-one] | 1340 | 23
9 | CCc1cccc(-c2nc(C(F)(F)F)c(Oc3ccc(Cl)c(Cl)c3)c(=O)[nH]2)n1 [Example 162, 2-(6-ethylpyridin-2-yl)-5-(3,4-dichlorophenoxy)-6-(trifluoromethyl)pyrimidin-4(3H)-one] | 1070 | 1.9
10 | CS(=O)(=O)c1cccnc1-c1nc(C(F)(F)F)c(Oc2ccc(Cl)c(Cl)c2)c(=O)[nH]1 [Example 268, 5-(3,4-Dichlorophenoxy)-2-[3-(methylsulphonyl)pyridin-2-yl]-6-(trifluoromethyl)pyrimidin-4(3H)-one] | 484 | 5.8
11 | CC(C)Oc1ccnc(-c2nc(C(F)(F)F)c(Oc3ccc(Cl)c(Cl)c3)c(=O)[nH]2)c1 [Example 145, 5-(3,4-dichlorophenoxy)-2-(4-isopropoxypyridin-2-yl)-6-(trifluoromethyl)pyrimidin-4(3H)-one] | 2810 | 322
12 | CC(C)(C)Oc1ccnc(-c2nc(C(F)(F)F)c(Oc3ccc(Cl)c(C(F)(F)F)c3)c(=O)[nH]2)c1 [Example 160, 2-(4-tert-butoxypyridin-2-yl)-5-[4-chloro-3-(trifluoromethyl)phenoxy]-6-(trifluoromethyl)pyrimidin-4(3H)-one] | 1960 | 62
13 | O=c1[nH]c(-c2ncccc2C(F)(F)F)nc(C(F)(F)F)c1Oc1ccc(Cl)c(C(F)(F)F)c1 [Example 186, 5-[4-chloro-3-(trifluoromethyl)phenoxy)-6-(trifluoromethyl)-2-[3-(trifluoromethyl)pyridin-2-yl]pyrimidin-4(3H)-one] | 513 | 4.8
14 | O=c1[nH]c(-n2cnc(Cl)n2)nc(C(F)(F)F)c1Oc1ccc(Cl)c(Cl)c1 [Example 247] | 5530 | 123
15 | CCc1cc(-c2nc(C(F)(F)F)c(Oc3ccc(Cl)c(C(F)(F)F)c3)c(=O)[nH]2)no1 [Example 217] | 874 | 1.8

Results, then the compound that gave them:

Row | IC50 (murine CCR2) [nM] | IC50 (human CCR2) [nM] | Structure (SMILES)
16 | 59 | 0.3 | COc1cccnc1-c1nc(C(F)(F)F)c(Oc2ccc(Cl)c(C)c2)c(=O)[nH]1 [Example 194, 5-(4-chloro-3-methylphenoxy)-2-(3-methoxypyridin-2-yl)-6-(trifluoromethyl)pyrimidin-4(3H)-one]
17 | 475 | 9.5 | O=c1[nH]c(-c2cccnn2)nc(C(F)(F)F)c1Oc1ccc(Cl)c(Cl)c1 [Example 125, 5-(3,4-dichlorophenoxy)-2-(pyridazin-3-yl)-6-(trifluoromethyl)pyrimidin-4(3H)-one]
18 | 454 | 42 | COc1ccc(-c2nc(C(F)(F)F)c(Oc3ccc(Cl)c(Cl)c3)c(=O)[nH]2)nc1 [Example 148, 5-(3,4-dichlorophenoxy)-2-(5-methoxypyridin-2-yl)-6-(trifluoromethyl)pyrimidin-4(3H)-one]
19 | 79 | 0.7 | Cc1ccc(-c2nc(C(F)(F)F)c(Oc3ccc(Cl)c(C(F)(F)F)c3)c(=O)[nH]2)nc1 [Example 193, 5-[4-chloro-3-(trifluoromethyl)phenoxy]-2-(5-methylpyridin-2-yl)-6-(trifluoromethyl)pyrimidin-4(3H)-one]
20 | 257 | 12 | C[S+]([O-])c1cccnc1-c1nc(C(F)(F)F)c(Oc2ccc(Cl)c(C(F)(F)F)c2)c(=O)[nH]1 (stereo not shown) [Example 265]
21 | 149 | 0.5 | Nc1ccc(-c2nc(C(F)(F)F)c(Oc3ccc(Cl)c(Cl)c3)c(=O)[nH]2)nn1 [Example 121, 2-(6-aminopyridazin-3-yl)-5-(3,4-dichlorophenoxy)-6-(trifluoromethyl)pyrimidin-4(3H)-one]
22 | 447 | 1.3 | COCc1cc(-c2nc(C(F)(F)F)c(Oc3ccc(Cl)c(C(F)(F)F)c3)c(=O)[nH]2)no1 [Example 221]
23 | 100 | 0.8 | Nc1ccn(-c2nc(C(F)(F)F)c(Oc3ccc(Cl)c(Cl)c3)c(=O)[nH]2)n1 [Example 256, 2-(3-Amino-1H-pyrazol-1-yl)-5-(3,4-dichlorophenoxy)-6-(trifluoromethyl)pyrimidin-4(3H)-one]
24 | 6.1 | 0.1 | CSc1cccnc1-c1nc(C(F)(F)F)c(Oc2ccc(Cl)c(C(F)(F)F)c2)c(=O)[nH]1 [Example 114]
25 | 349 | 3 | O=c1[nH]c(-c2ncccc2Cl)nc(C(F)(F)F)c1Oc1ccc(Cl)cc1 [Example 210]
26 | 87 | 0.5 | Cn1ccc(-c2nc(C(F)(F)F)c(Oc3ccc(Cl)c(C(F)(F)F)c3)c(=O)[nH]2)n1 [Example 226]

— US20160237059A1, “HETEROCYCLIC SUBSTITUTED TRIFLUOROMETHYL PYRIMIDINONES AND THEIR USE” (BAYER PHARMA AKTIENGESELLSCHAFT, priority 2013, published 2016)
